# Assay results reported in patent US20260356817A1, “AMINOPYRIMIDINE AND AMINOTRIAZINE DERIVATIVES AS MYC PROTEIN MODULATORS” (Sanford Burnham Prebys Medical Discovery Institute, priority 2022, published 2026).
# Where two headings read alike, the source gives them in different places.
# Tested on: Myc
# Experiment: Myc inhibition assay: Myc expression per cell by anti-Myc immunofluorescence, high-content imaging
# Format: cell-based, human (patient-derived medulloblastoma xenograft cells)
# Details: medulloblastoma PDX cells, 4 h
# In short: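 IC50 comes from high-content imaging of per-cell Myc immunostaining (DAPI-labelled nuclei) after 4 h compound exposure. Cells were freshly dissociated medulloblastoma PDX tumours, never passaged in vitro, grown in NSG mouse cerebellum, plated serum-free and recovered overnight before treatment.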
# [1] = Table 1, read-out: IC50 (Myc inhibition)
# [2] = Table 2, read-out: MYC Inhibition IC50
SMILES,IC50 [1] [µM],IC50 [2] [µM]
"CS(=O)(=O)c1cccc(Nc2nccc(-c3ccc4[nH]cnc4c3)n2)c1 [Compound 27, 4-(1H-benzo[d]imidazol-5-yl)-N-(3-(methylsulfonyl)phenyl)pyrimidin-2-amine]",< 0.2,< 0.2
"COc1cc(-c2ccnc(Nc3ccccc3)n2)ncn1 [Compound 162, 6′-methoxy-N-phenyl-[4,4′-bipyrimidin]-2-amine]",10 to 100,10 to 100
"FC(F)(F)c1nnc(Nc2nccc(-c3ccc4[nH]cnc4c3)n2)s1 [Compound 58, N-(4-(1H-benzo[d]imidazol-5-yl)pyrimidin-2-yl)-5-(trifluoromethyl)-1,3,4-thiadiazol-2-amine]",1 to 10,1 to 10
"Oc1cc(-c2ccnc(Nc3cncc(F)c3)n2)ccn1 [Compound 145, 4-(2-((5-fluoropyridin-3-yl)amino)pyrimidin-4-yl)pyridin-2-ol]",1 to 10,1 to 10
"COc1cncc(-c2ccnc(Nc3ccccc3)n2)c1 [Compound 228, 4-(5-methoxypyridin-3-yl)-N-phenylpyrimidin-2-amine]",1 to 10,1 to 10
"COc1cc(-c2ccnc(Nc3cccnc3)n2)ccn1 [Compound 189, 4-(2-methoxypyridin-4-yl)-N-(pyridin-3-yl)pyrimidin-2-amine]",1 to 10,1 to 10
"O=S(=O)(Nc1ccccc1F)c1cccc(Nc2nccc(-c3ccc4[nH]cnc4c3)n2)c1 [Compound 12, 3-((4-(1H-benzo[d]imidazol-5-yl)pyrimidin-2-yl)amino)-N-(2-fluorophenyl)benzenesulfonamide]",0.2 to 1,0.2 to 1
"CCCc1cccc(Nc2nccc(-c3cnc4nc[nH]c4c3)n2)c1 [Compound 133, 4-(1H-imidazo[4,5-b]pyridin-6-yl)-N-(3-propylphenyl)pyrimidin-2-amine]",< 0.2,< 0.2
"Brc1cccc(Nc2nccc(-c3ccc4[nH]cnc4c3)n2)c1 [Compound 31, 4-(1H-benzo[d]imidazol-5-yl)-N-(3-bromophenyl)pyrimidin-2-amine]",< 0.2,< 0.2
"COc1cncc(-c2ccnc(Nc3cccc(C(F)(F)F)c3)n2)c1 [Compound 204, 4-(5-methoxypyridin-3-yl)-N-(3-(trifluoromethyl)phenyl)pyrimidin-2-amine]",0.2 to 1,0.2 to 1
"Cc1cc(Cl)cc(Nc2nccc(-c3ccc4nc[nH]c4c3)n2)c1 [Compound 274, 4-(1H-benzo[d]imidazol-6-yl)-N-(3-chloro-5-methylphenyl)pyrimidin-2-amine]",< 0.2,< 0.2
"O=S(=O)(NC1CC1)c1cccc(Nc2nccc(-c3ccc4[nH]cnc4c3)n2)c1 [Compound 24, 3-((4-(1H-benzo[d]imidazol-5-yl)pyrimidin-2-yl)amino)-N-cyclopropylbenzenesulfonamide]",0.2 to 1,0.2 to 1
"COc1cc(-c2ccnc(Nc3cccc(C(F)(F)F)n3)n2)ccn1 [Compound 168, 4-(2-methoxypyridin-4-yl)-N-(6-(trifluoromethyl)pyridin-2-yl)pyrimidin-2-amine]",10 to 100,10 to 100
"c1csc(CNc2nccc(-c3ccc4[nH]cnc4c3)n2)c1 [Compound 75, 4-(1H-benzo[d]imidazol-5-yl)-N-(thiophen-2-ylmethyl)pyrimidin-2-amine]",1 to 10,1 to 10
"FC(F)(F)c1cccc(Nc2nccc(-c3c[nH]c4cnccc34)n2)c1 [Compound 30, 4-(1H-pyrrolo[2,3-c]pyridin-3-yl)-N-(3-(trifluoromethyl)phenyl)pyrimidin-2-amine]",1 to 10,1 to 10
"Fc1cccc(Nc2nccc(-c3ccc4[nH]ccc4c3)n2)c1 [Compound 153, N-(3-fluorophenyl)-4-(1H-indol-5-yl)pyrimidin-2-amine]",1 to 10,1 to 10
"FC(F)(F)Oc1ccccc1Nc1nccc(-c2ccc3[nH]cnc3c2)n1 [Compound 79, 4-(1H-benzo[d]imidazol-5-yl)-N-(2-(trifluoromethoxy)phenyl)pyrimidin-2-amine]",0.2 to 1,0.2 to 1
"Oc1cncc(-c2ccnc(Nc3cccc(C(F)(F)F)c3)n2)c1 [Compound 201, 5-(2-((3-(trifluoromethyl)phenyl)amino)pyrimidin-4-yl)pyridin-3-ol]",1 to 10,1 to 10
"CS(=O)(=O)Nc1cccc(Nc2nccc(-c3ccc4[nH]cnc4c3)n2)c1 [Compound 255, N-(3-((4-(1H-benzo[d]imidazol-5-yl)pyrimidin-2-yl)amino)phenyl)methanesulfonamide]",1 to 10,1 to 10
"c1cc(-c2ccc3[nH]cnc3c2)nc(Nc2ccsc2)n1 [Compound 68, 4-(1H-benzo[d]imidazol-5-yl)-N-(thiophen-3-yl)pyrimidin-2-amine]",0.2 to 1,0.2 to 1
"CN(c1cccc(Nc2nccc(-c3ccc4[nH]cnc4c3)n2)c1)S(=O)(=O)c1ccccc1 [Compound 262, N-(3-((4-(1H-benzo[d]imidazol-5-yl)pyrimidin-2-yl)amino)phenyl)-N-methylbenzenesulfonamide]",1 to 10,1 to 10

SMILES,IC50 [1] [µM],IC50 [2] [µM]
"Oc1ccc(Nc2ccnc(Nc3cccc(F)c3)n2)cn1 [Compound 123, 5-((2-((3-fluorophenyl)amino)pyrimidin-4-yl)amino)pyridin-2-ol]",10 to 100,10 to 100
"FC(F)c1cccc(Nc2nccc(-c3ccc4nc[nH]c4c3)n2)c1 [Compound 280, 4-(1H-benzo[d]imidazol-5-yl)-N-(3-(difluoromethyl)phenyl)pyrimidin-2-amine]",< 0.2,< 0.2
"c1cc(-c2ccc3[nH]cnc3c2)nc(Nc2ccc3c(c2)CCC3)n1 [Compound 97, 4-(1H-benzo[d]imidazol-5-yl)-N-(2,3-dihydro-1H-inden-5-yl)pyrimidin-2-amine]",1 to 10,1 to 10
"NC(=O)c1ccc(Nc2nccc(-c3ccc4[nH]cnc4c3)n2)cc1 [Compound 73, 4-((4-(1H-benzo[d]imidazol-5-yl)pyrimidin-2-yl)amino)benzamide]",1 to 10,1 to 10
"c1cc(Nc2nccc(-c3ccc4[nH]cnc4c3)n2)cc(-c2cnco2)c1 [Compound 264, 4-(1H-benzo[d]imidazol-5-yl)-N-(3-(oxazol-5-yl)phenyl)pyrimidin-2-amine]",< 0.2,< 0.2
"Oc1cc(-c2ccnc(Nc3cncc(C(F)(F)F)c3)n2)ccn1 [Compound 154, 4-(2-((5-(trifluoromethyl)pyridin-3-yl)amino)pyrimidin-4-yl)pyridin-2-ol]",0.2 to 1,0.2 to 1
"Fc1cncc(Nc2nccc(-c3ccc4[nH]cnc4c3)n2)c1 [Compound 83, 4-(1H-benzo[d]imidazol-5-yl)-N-(5-fluoropyridin-3-yl)pyrimidin-2-amine]",1 to 10,1 to 10
"COc1cccc(-c2ccnc(Nc3ccccc3)n2)n1 [Compound 236, 4-(6-methoxypyridin-2-yl)-N-phenylpyrimidin-2-amine]",10 to 100,10 to 100
"Oc1cc(-c2ccnc(Nc3ccccn3)n2)ccn1 [Compound 186, 4-(2-(pyridin-2-ylamino)pyrimidin-4-yl)pyridin-2-ol]",10 to 100,10 to 100
"COc1cc(-c2ccnc(Nc3cccc(C(N)=O)c3)n2)ccn1 [Compound 198, 3-((4-(2-methoxypyridin-4-yl)pyrimidin-2-yl)amino)benzamide]",1 to 10,1 to 10
"CCC(=O)Nc1cccc(Nc2nccc(-c3ccc4[nH]cnc4c3)n2)c1 [Compound 15, N-(3-((4-(1H-benzo[d]imidazol-5-yl)pyrimidin-2-yl)amino)phenyl)propionamide]",0.2 to 1,0.2 to 1
"Cc1ccc(Nc2nccc(-c3ccc4[nH]cnc4c3)n2)cc1C [Compound 60, 4-(1H-benzo[d]imidazol-5-yl)-N-(3,4-dimethylphenyl)pyrimidin-2-amine]",0.2 to 1,0.2 to 1
"c1cc(Nc2nccc(-c3ccc4[nH]cnc4c3)n2)cc(-n2ccnn2)c1 [Compound 259, N-(3-(1H-1,2,3-triazol-1-yl)phenyl)-4-(1H-benzo[d]imidazol-5-yl)pyrimidin-2-amine]",< 0.2,< 0.2
"COc1cc(-c2ccnc(Nc3cc(C(F)(F)F)ccn3)n2)ccn1 [Compound 166, 4-(2-methoxypyridin-4-yl)-N-(4-(trifluoromethyl)pyridin-2-yl)pyrimidin-2-amine]",10 to 100,10 to 100
"CCN(CC)C(=O)c1cccc(Nc2nccc(-c3ccc4[nH]cnc4c3)n2)c1 [Compound 19, 3-((4-(1H-benzo[d]imidazol-5-yl)pyrimidin-2-yl)amino)-N,N-diethylbenzamide]",0.2 to 1,0.2 to 1
"FC(F)(F)c1cc(Nc2nccc(-c3ccc4[nH]cnc4c3)n2)ccc1Cl [Compound 89, 4-(1H-benzo[d]imidazol-5-yl)-N-(4-chloro-3-(trifluoromethyl)phenyl)pyrimidin-2-amine]",1 to 10,1 to 10
"Oc1cc(-c2ccnc(Nc3ccc(F)c(F)c3)n2)ccn1 [Compound 209, 4-(2-((3,4-difluorophenyl)amino)pyrimidin-4-yl)pyridin-2-ol]",1 to 10,1 to 10
"COc1cc(-c2ccnc(Nc3cccc(OCCN)c3)n2)ccn1 [Compound 121, N-(3-(2-aminoethoxy)phenyl)-4-(2-methoxypyridin-4-yl)pyrimidin-2-amine]",1 to 10,1 to 10
"Fc1cccc(Nc2nccc(-c3ccc4[nH]cnc4c3)n2)c1 [Compound 199, 4-(1H-benzo[d]imidazol-5-yl)-N-(3-fluorophenyl)pyrimidin-2-amine]",< 0.2,< 0.2
"COc1ncc(-c2ccnc(Nc3cccc(C(F)(F)F)c3)n2)s1 [Compound 143, 4-(2-methoxythiazol-5-yl)-N-(3-(trifluoromethyl)phenyl)pyrimidin-2-amine]",0.2 to 1,0.2 to 1
